Results taken from patent US20240294499A1, “TARGETED PROTEIN DEGRADATION USING BIFUNCTIONAL COMPOUNDS THAT BIND UBIQUITIN LIGASE AND TARGET MCL-1 PROTEIN” (Captor Therapeutics S.A., priority 2021, published 2024).

Assays:
MV-4-11 cells [1] = assay: Cell viability assay (CellTiter-Glo), MV-4-11; type: cell-based; conditions: Homo sapiens, MV4-11, 24 hours incubation, 1% FBS, read-out: Average pIC50 by molecule MV-4-11 (converted)
Summary of the method: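 OPM-2, MV-4-11 and ARH-77 cells were grown in medium with 1% FBS and treated with compound in 1/3 dilutions from 30 uM (9–12 points, 0.5% DMSO). Viability was read by CellTiter-Glo luminescence after 24 hours and normalized to DMSO control.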

MCL-1 protein = MCL-1 protein (Homo sapiens, UniProt Q07820); assay: Dose-dependent MCL-1 protein degradation and induction of apoptosis in cancer cells, Western blot; type: cell-based; parameters: endogenous in cells; host or cells: OPM-2, MV-4-11, DMS 114; conditions: for degradation of MCL-1 protein and apoptosis of OPM2 cells compared to dMCL1-2 and C3: FIG. 2 and FIG. 3
Method: The experiments were performed as described for the “OPM-2 cells: MCL-1 protein degradation, Western blot” and “DMS 114 cells: MCL-1 protein degradation, Western blot”.
In addition to MCL-1 and α-Tubulin, PARP and cleaved caspase-3 were detected to monitor apoptosis.
FIG. 2 presents the results of MCL-1 protein degradation and induction of apoptosis for the OPM-2 cells treated with 204 or 215 at 0.01, 0.1 or 1 μM concentration for 6 hours or 24 hours, as indicated.
FIG. 3A presents the results of MCL-1 protein degradation and induction of apoptosis for the OPM-2 cells treated with 204 and control compounds dMCL1-2 (Papatzimas et al., J. Med. Chem. 2019, 62, 11, 5522-5540) at 0.01, 0.03, 0.1, 0.3 or 1 μM concentration for 3 hours, 6 hours or 24 hours, as indicated.
FIG. 3B presents the results of MCL-1 protein degradation and induction of apoptosis for the MV-4-11 cells treated with 204 and control compounds C3 (Wang Z et al., J. Med. Chem. 2019, 62, 17, 8152-8163) at 0.1, 1 or 10 μM concentration for 24 hours, as indicated.
FIG. 3C presents the results of MCL-1 protein degradation and induction of apoptosis for the OPM-2 cells treated with 220, 268, 346 and control compounds dMCL1-2 at 0.03, 0.1, 0.3, 1 μM concentration for 6 hours, as indicated.
FIG. 3D presents the results of MCL-1 protein degradation and induction of apoptosis for the OPM-2 cells treated with 220, 342 at 0.1, 1, 10 μM concentration for 6 hours, as indicated.
FIG. 3E presents the results of MCL-1 protein degradation and induction of apoptosis for the DMS 114 cells treated with 204, 220, 268, 346 at 0.1, 1, 10 μM concentration for 6 hours, as indicated.

[2] = test system: hiPSC-CM (iCELL Cardiomyocytes); assay: Cardiac safety: hiPSC-CM cell viability assay (CTG); type: cell-based, human; conditions: for IC50: Homo sapiens, Cardiomyocyte, 336 h, viability, CTG assay, treatment until day 14, read-out: Average pIC50 by molecule hiPSC-CM (converted); for activity in viability assay in cardiomyocytes: as opposed to reference compounds MIK665 and AZD5991
Text: The effect of various compounds of the invention and a reference compounds AZD5991 and MIK665 on cardiac safety was investigated by the evaluation of viability with CTG assay (Promega; cat #G7572) in iCELL™ Cardiomyocytes from FUJIFILM Cellular Dynamics (Catalog number: 11713).
Cells were thawed, counted using an automated cell counter (TC20, Bio-Rad) and seeded in 96 well plates (Greiner-BioOne; 655098) previously coated with 0.1% gelatin (Sigma-Aldrich; G1890) using Plating Medium (#M1001) following the instructions of the iCELL cardiomyocytes User Guide. Forty ml of Plating Medium was used to equally distribute the cells in four 96 well plates. Cells were then placed in the incubator at 37° C., 5% CO2 and left undisturbed for 48 hours. Compounds were serially diluted in DMSO and then further diluted to final assay concentration using maintenance medium (#M1003). Final DMSO concentration was 0.5%. Forty eight hours after plating, non-adherent cells and debris were washed as described in the User Guide. Plating medium was then replaced with maintenance medium containing diluted compounds or DMSO (as control). Medium was then changed every 2 days with fresh medium containing compounds or DMSO until the end of the treatment. On day 14, only medium without compounds was used immediately before the CTG assay. Luminescence signal was measured using a CLARIOstar Plus Multi-Mode Microplate Reader (574-590 nm).

MV-4-11 cells [3] = assay: Mitochondrial potential changes in cancer cells, flow cytometry (TMRE); type: cell-based; conditions: 5 hours
Method: The effect of compounds 220 and 268 of the invention in MV-4-11 cells was investigated using the following protocol.
MV-4-11 cells were seeded on 384-well plates (0.05 ml) in growth medium containing 1% FBS and 50 nM tetramethylrhodamine ethyl ester (TMRE). Immediately after seeding, compounds in appropriate concentrations were added directly to the cell culture medium. After 5 hours incubation, cells were analyzed by flow cytometry (LSR Fortessa X-20; BD Biosciences). Results were evaluated using FlowJo (V10) software.
FIG. 7 presents the effect of the compound in the mitochondrial potential of MV-4-11 cells treated with 220 for 5 hours. Compound concentration is specified in the top-left corner of each histogram; Dimethyl sulfoxide (DMSO) was used as vehicle control. Population of interest and the percentage of cells included are highlighted with a red bar and shown in bold red ink, respectively.
FIG. 8 presents the concentration dependent decrease (compared to DMSO control) of the population of cells with normal polarized mitochondria after treatment of MV-4-11 cells with the compounds 220 and 268 for 5 hours.

Sequence of MCL-1 protein (Q07820 whole entry): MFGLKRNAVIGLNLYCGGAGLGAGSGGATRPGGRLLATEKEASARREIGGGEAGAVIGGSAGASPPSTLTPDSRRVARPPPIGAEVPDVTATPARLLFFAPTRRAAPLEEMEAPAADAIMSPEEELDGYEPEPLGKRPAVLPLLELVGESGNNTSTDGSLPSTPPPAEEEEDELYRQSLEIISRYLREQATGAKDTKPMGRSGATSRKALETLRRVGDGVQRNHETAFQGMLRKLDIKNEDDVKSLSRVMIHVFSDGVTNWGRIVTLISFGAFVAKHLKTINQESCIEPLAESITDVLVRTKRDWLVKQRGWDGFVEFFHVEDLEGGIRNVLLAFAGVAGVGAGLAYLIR

IC50 (MV-4-11 cells [1])	degradation of MCL-1 protein and apoptosis of OPM2 cells compared to dMCL1-2 and C3 (MCL-1 protein)	MCL-1 protein degradation and induction of apoptosis compared with control compounds (MCL-1 protein; OPM-2 cells vs dMCL1-2, MV-4-11 cells vs C3 (FIG. 3A, 3B))	SMILES	IC50 [2]	activity in viability assay in cardiomyocytes [2]	mitochondrial potential (population of cells with normal polarized mitochondria) (MV-4-11 cells [3])
≤ 100 nM	improved potency		Cc1nn(C)c(C)c1-c1c(F)ccc2c(CCCOc3cccc4cc(F)ccc34)c(C(=O)O)n(CCN3CCN(C(=O)COc4cccc5c4C(=O)N(C4CCC(=O)NC4=O)C5=O)CC3)c12 (stereo not drawn) [Compound 215, 1-{2-[4-(2-{[2-(2,6-dioxopiperidin-3-yl)-1,3-dioxo-2,3-dihydro-1H-isoindol-4-yl]oxy}acetyl)piperazin-1-yl]ethyl}-6-fluoro-3-{3-[(6-fluoronaphthalen-1-yl)oxy]propyl}-7-(1,3,5-trimethyl-1H-pyrazol-4-yl)-1H-indole-2-carboxylic acid]			
≤ 31.6 nM	improved potency		Cc1nn(C)c(C)c1-c1c(Cl)ccc2c(CCCOc3cccc4cc(F)ccc34)c(C(=O)O)n(CCN3CCN(C(=O)COc4cccc5c4CN(C4CCC(=O)NC4=O)C5=O)CC3)c12 (stereo not drawn) [Compound 220, 6-chloro-1-{2-[4-(2-{[2-(2,6-dioxopiperidin-3-yl)-1-oxo-2,3-dihydro-1H-isoindol-4-yl]oxy}acetyl)piperazin-1-yl]ethyl}-3-{3-[(6-fluoronaphthalen-1-yl)oxy]propyl}-7-(1,3,5-trimethyl-1H-pyrazol-4-yl)-1H-indole-2-carboxylic acid]	10 µM	much lower activity	concentration dependent depolarization of mitochondria
	improved potency		Cc1nn(C)c(C)c1-c1c(Cl)ccc2c(CCCOc3cccc4cc(F)ccc34)c(C(=O)O)n(CCN3CCN(C(=O)Cn4c(C)nc5c(C(=O)NC6CCC(=O)NC6=O)cccc54)CC3)c12 (stereo not drawn) [Compound 268, 6-chloro-1-{2-[4-(2-{4-[(2,6-dioxopiperidin-3-yl)carbamoyl]-2-methyl-1H-1,3-benzodiazol-1-yl}acetyl)piperazin-1-yl]ethyl}-3-{3-[(6-fluoronaphthalen-1-yl)oxy]propyl}-7-(1,3,5-trimethyl-1H-pyrazol-4-yl)-1H-indole-2-carboxylic acid]	> 39.8 µM	much lower activity	concentration dependent depolarization of mitochondria
≤ 100 nM	improved potency		Cc1nn2c(c1-c1c(Cl)ccc3c(CCCOc4cccc5cc(F)ccc45)c(C(=O)O)n(CCN4CCN(C(=O)COc5cccc6c5CN(C5CCC(=O)NC5=O)C6=O)CC4)c13)COCC2 (stereo not drawn) [Compound 346, 6-Chloro-1-(2-(4-(2-((2-(2,6-dioxopiperidin-3-yl)-1-oxoisoindolin-4-yl)oxy)acetyl)piperazin-1-yl)ethyl)-3-(3-((6-fluoronaphthalen-1-yl)oxy)propyl)-7-(2-methyl-6,7-dihydro-4H-pyrazolo[5,1-c][1,4]oxazin-3-yl)-1H-indole-2-carboxylic acid]	10 µM	much lower activity	
≤ 100 nM	improved potency	more potent	Cc1nn(C)c(C)c1-c1c(Cl)ccc2c(CCCOc3cccc4ccccc34)c(C(=O)O)n(CCN3CCN(C(=O)COc4cccc5c4C(=O)N(C4CCC(=O)NC4=O)C5=O)CC3)c12 (stereo not drawn) [Compound 204, 6-chloro-1-(2-(4-(2-((2-(2,6-dioxopiperidin-3-yl)-1,3-dioxoisoindolin-4-yl)oxy)acetyl)piperazin-1-yl)ethyl)-3-(3-(naphthalen-1-yloxy)propyl)-7-(1,3,5-trimethyl-1H-pyrazol-4-yl)-1H-indole-2-carboxylic acid]			
